pEC50, pIC50: −log10 of the molar value.
How the values were obtained:
[1] = system: Human immunodeficiency virus 1; experiment: Antiviral activity against HIV-1 IIIB infected in human MT4 cells assessed as reduction in virus induced cytopathic effect incubated for 5 days by MTT assay; type: functional, organism-based; conditions: Human immunodeficiency virus 1, IIIB, MT4, 120 h
[2] = system: Human immunodeficiency virus 1; experiment: Antiviral activity against HIV-1 RES056 infected in human MT4 cells assessed as reduction in virus induced cytopathic effect incubated for 5 days by MTT assay; type: functional, organism-based; conditions: Human immunodeficiency virus 1, RES056, MT4, 120 h
[3] = Cytotoxicity against human MT4 cells assessed as cell growth inhibition incubated for 5 days by MTT assay; type: toxicity, cell-based; conditions: time 5 day
[4] = Selectivity index, ratio of CC50 for cytotoxicity against human MT4 cells assessed as reduction in cell viability to EC50 for antiviral activity against HIV-1 IIIB infected in human MT4 cells assessed as reduction in virus induced cytopathic effect; type: toxicity, cell-based; conditions: read-out: Ratio CC50/EC50
[5] = system: Human immunodeficiency virus 1; experiment: Antiviral activity against NNRTI-resistant HIV-1 harboring L100I mutant infected in human MT4 cells assessed as virus-induced cytopathicity incubated for 5 days by MTT assay; type: functional, organism-based; conditions: Human immunodeficiency virus 1, MT4, 120 h
[6] = system: Human immunodeficiency virus 1; experiment: Antiviral activity against NNRTI-resistant HIV-1 harboring K103N mutant infected in human MT4 cells assessed as virus-induced cytopathicity incubated for 5 days by MTT assay; type: functional, organism-based; conditions: Human immunodeficiency virus 1, MT4, 120 h
[7] = system: Human immunodeficiency virus 1; experiment: Antiviral activity against NNRTI-resistant HIV-1 harboring Y181C mutant infected in human MT4 cells assessed as virus-induced cytopathicity incubated for 5 days by MTT assay; type: functional, organism-based; conditions: Human immunodeficiency virus 1, MT4, 120 h
[8] = system: Human immunodeficiency virus 1; experiment: Antiviral activity against NNRTI-resistant HIV-1 harboring Y188L mutant infected in human MT4 cells assessed as virus-induced cytopathicity incubated for 5 days by MTT assay; type: functional, organism-based; conditions: Human immunodeficiency virus 1, MT4, 120 h
[9] = system: Human immunodeficiency virus 1; experiment: Antiviral activity against NNRTI-resistant HIV-1 harboring E138K mutant infected in human MT4 cells assessed as virus-induced cytopathicity incubated for 5 days by MTT assay; type: functional, organism-based; conditions: Human immunodeficiency virus 1, MT4, 120 h
[10] = system: Human immunodeficiency virus 1; experiment: Antiviral activity against NNRTI-resistant HIV-1 harboring F227L/V106A double mutant infected in human MT4 cells assessed as virus-induced cytopathicity incubated for 5 days by MTT assay; type: functional, organism-based; conditions: Human immunodeficiency virus 1, MT4, 120 h
[11] = Selectivity index, ratio of CC50 for cytotoxicity against human MT4 cells assessed as reduction in cell viability to EC50 for antiviral activity against NNRTI-resistant HIV-1 harboring L100I mutant infected in human MT4 cells; type: toxicity, cell-based; conditions: read-out: Ratio CC50/EC50
[12] = Selectivity index, ratio of CC50 for cytotoxicity against human MT4 cells assessed as reduction in cell viability to EC50 for antiviral activity against NNRTI-resistant HIV-1 harboring K103N mutant infected in human MT4 cells; type: toxicity, cell-based; conditions: read-out: Ratio CC50/EC50
[13] = Selectivity index, ratio of CC50 for cytotoxicity against human MT4 cells assessed as reduction in cell viability to EC50 for antiviral activity against NNRTI-resistant HIV-1 harboring Y181C mutant infected in human MT4 cells; type: toxicity, cell-based; conditions: read-out: Ratio CC50/EC50
[14] = Selectivity index, ratio of CC50 for cytotoxicity against human MT4 cells assessed as reduction in cell viability to EC50 for antiviral activity against NNRTI-resistant HIV-1 harboring Y188L mutant infected in human MT4 cells; type: toxicity, cell-based; conditions: read-out: Ratio CC50/EC50
[15] = Selectivity index, ratio of CC50 for cytotoxicity against human MT4 cells assessed as reduction in cell viability to EC50 for antiviral activity against NNRTI-resistant HIV-1 harboring E138K mutant infected in human MT4 cells; type: toxicity, cell-based; conditions: read-out: Ratio CC50/EC50
[16] = Selectivity index, ratio of CC50 for cytotoxicity against human MT4 cells assessed as reduction in cell viability to EC50 for antiviral activity against NNRTI-resistant HIV-1 harboring F227L/V106A double mutant infected in human MT4 cells; type: toxicity, cell-based; conditions: read-out: Ratio CC50/EC50
[17] = Selectivity index, ratio of CC50 for cytotoxicity against human MT4 cells assessed as reduction in cell viability to EC50 for antiviral activity against HIV-1 RES056 infected in human MT4 cells assessed as reduction in virus induced cytopathic effect; type: toxicity, cell-based; conditions: read-out: Ratio CC50/EC50
[18] = (§1) Fold resistance, ratio of EC50 for antiviral activity against NNRTI-resistant HIV-1 harboring L100I mutant infected in human MT4 cells assessed as virus-induced cytopathicity to EC50 for antiviral activity against HIV-1 IIIB infected in human MT4 cells assessed as reduction in virus induced cytopathic effect; type: functional
[19] = as §1, with “K103N” for “L100I”; type: functional
[20] = as §1, with “Y181C” for “L100I”; type: functional
[21] = as §1, with “Y188L” for “L100I”; type: functional
[22] = as §1, with “E138K” for “L100I”; type: functional
[23] = as §1, with “F227L/V106A double” for “L100I”; type: functional
[24] = as §1, with “F227L/V106A double” for “L100I”, “RES056” for “IIIB”; type: functional
[25] = target: Human immunodeficiency virus type 1 reverse transcriptase (Human immunodeficiency virus 1, UniProt Q72547); experiment: Inhibition of wild type HIV-1 reverse transcriptase assessed as reduction of biotin-dUTP incorporation into […] using ABTS as substrate incubated for 1 hrs by ELISA analysis

Row | SMILES | pEC50 [1] | pEC50 [2] | CC50 at 120 h [3] | selectivity ratio [4] | pEC50 [5] | pEC50 [6] | pEC50 [7] | pEC50 [8] | pEC50 [9] | pEC50 [10] | selectivity ratio [11] | selectivity ratio [12] | selectivity ratio [13] | selectivity ratio [14] | selectivity ratio [15] | selectivity ratio [16] | selectivity ratio [17] | Ratio EC50 [18] | Ratio EC50 [19] | Ratio EC50 [20] | also measured
1 | Cc1cc(C#N)cc(C)c1Oc1nc(Nc2ccc(C#N)c(F)c2)ncc1C(N)=O | 7.96 | 5.14 | 34900 nM | 3230 | 7.30 | 7.70 | 6.74 | 7.00 | 7.29 | 5.51 | 698 | 1770 | 194 | 345 | 681 | 11 | 5 | 4.6 | 1.8 | 16.6 | Ratio EC50 [21]: 9.4; Ratio EC50 [22]: 4.7; Ratio EC50 [23]: 287.6; Ratio EC50 [24]: 663.7; pIC50 [25]: 6.77
2 | Cc1cc(C#N)cc(C)c1Oc1nc(NC2CCN(c3ccc(NS(C)(=O)=O)cc3)CC2)ncc1C(N)=O | 7.72 | 4.48 | > 233000 nM | > 12100 | 6.61 | 6.81 | 6.59 | 7.62 | 6.65 | 6.11 | > 946 | > 1510 | > 901 | > 9940 | > 1040 | > 299 | > 7 | 12.7 | 8 | 13.4 | Ratio EC50 [21]: 1.2; Ratio EC50 [22]: 11.6; Ratio EC50 [23]: 40.3; Ratio EC50 [24]: 1716.7; pIC50 [25]: 6.70
3 | Cc1cc(C#N)cc(C)c1Oc1nc(NC2CCN(c3ccc(NS(=O)(=O)N(C)C)cc3)CC2)ncc1C(N)=O | 8.15 | 4.81 | 209000 nM | 31700 | 6.86 | 7.96 | 7.27 | 7.48 | 7.59 | 7.47 | 1500 | 18700 | 3910 | 6350 | 8010 | 6160 | 13 | 21.1 | 1.7 | 8.1 | Ratio EC50 [21]: 5; Ratio EC50 [22]: 3.9; Ratio EC50 [23]: 5.1; Ratio EC50 [24]: 2359.1; pIC50 [25]: 7.28
4 | Cc1cc(C#N)cc(C)c1Oc1nc(NC2CCN(Cc3ccc(C(N)=O)cc3)CC2)ncc1C(N)=O | 7.35 | 4.75 | > 250000 nM | > 5560 | 7.14 | 7.35 | 6.54 | 6.11 | 6.42 | 5.34 | > 344 | > 5580 | > 876 | > 324 | > 659 | > 55 | > 14 | 1.6 | 1 | 6.3 | Ratio EC50 [21]: 17.1; Ratio EC50 [22]: 8.4; Ratio EC50 [23]: 100.3; Ratio EC50 [24]: 394.1; pIC50 [25]: 6.80
5 | Cc1cc(C#N)cc(C)c1Oc1nc(NC2CCN(c3ccc(N)cc3)CC2)ncc1C(N)=O | 7.38 | 5.40 | 183000 nM | 4420 | 6.56 | 7.35 | 6.60 | 6.59 | 6.68 | 5.97 | 668 | 4120 | 726 | 718 | 881 | 169 | 46 | 6.6 | 1.1 | 6.1 | Ratio EC50 [21]: 6.2; Ratio EC50 [22]: 5; Ratio EC50 [23]: 26.1; Ratio EC50 [24]: 96.4; pIC50 [25]: 6.62
